Measured values from ChEMBL document CHEMBL6083208, “Integrating amino acids into Bcr-Abl inhibitors: design, synthesis, biological evaluation, and in silico studies” (RSC Med Chem, 2024).

How the values were obtained:
[1] = tested on: HEK293; test: Antiproliferative activity against HEK293 cells after 48 hrs by MTT assay; format: toxicity, cell-based; design: concentration or dose not given beside the values; details: human, hek293, 48 h
[2] = tested on: K562; test: cells; details: Homo sapiens, K562, 48 h
[3] = Inhibition of Bcr-Abl T315Ialpha mutant (unknown origin) using Abltide as substrate incubated for 1 hr by luminescence based ADP-glo assay; design: species or system Homo sapiens
[4] = tested on: BaF3; test: Antiproliferative activity against mouse BaF3 cells harbouring Bcr-Abl T315I assessed of cell viability at 30 uM incubated for 72 hrs by Celltiter-glo luminescent cell viability assay relative to control; format: functional
[5] = tested on: THP-1; test: Antiproliferative activity against human THP-1 cells after 48 hrs by MTT assay; format: functional; design: concentration or dose not given beside the values
[6] = biological target: Bcr/Abl fusion protein (Homo sapiens, UniProt P00519); test: Inhibition of wild type Bcr-Abl (unknown origin) using Abltide as substrate incubated for 1 hr by luminescence based ADP-glo assay; format: protein assay
[7] = tested on: BaF3; test: Antiproliferative activity against mouse BaF3 cells harbouring Bcr-Abl T315I assessed of cell viability at 10 uM incubated for 72 hrs by Celltiter-glo luminescent cell viability assay relative to control; format: functional
[8] = tested on: BaF3; test: Antiproliferative activity against mouse BaF3 cells harbouring Bcr-Abl T315I assessed of cell viability at 2 uM incubated for 72 hrs by Celltiter-glo luminescent cell viability assay relative to control; format: functional

Sequence of Bcr/Abl fusion protein (P00519 whole entry, the tested form may be a part): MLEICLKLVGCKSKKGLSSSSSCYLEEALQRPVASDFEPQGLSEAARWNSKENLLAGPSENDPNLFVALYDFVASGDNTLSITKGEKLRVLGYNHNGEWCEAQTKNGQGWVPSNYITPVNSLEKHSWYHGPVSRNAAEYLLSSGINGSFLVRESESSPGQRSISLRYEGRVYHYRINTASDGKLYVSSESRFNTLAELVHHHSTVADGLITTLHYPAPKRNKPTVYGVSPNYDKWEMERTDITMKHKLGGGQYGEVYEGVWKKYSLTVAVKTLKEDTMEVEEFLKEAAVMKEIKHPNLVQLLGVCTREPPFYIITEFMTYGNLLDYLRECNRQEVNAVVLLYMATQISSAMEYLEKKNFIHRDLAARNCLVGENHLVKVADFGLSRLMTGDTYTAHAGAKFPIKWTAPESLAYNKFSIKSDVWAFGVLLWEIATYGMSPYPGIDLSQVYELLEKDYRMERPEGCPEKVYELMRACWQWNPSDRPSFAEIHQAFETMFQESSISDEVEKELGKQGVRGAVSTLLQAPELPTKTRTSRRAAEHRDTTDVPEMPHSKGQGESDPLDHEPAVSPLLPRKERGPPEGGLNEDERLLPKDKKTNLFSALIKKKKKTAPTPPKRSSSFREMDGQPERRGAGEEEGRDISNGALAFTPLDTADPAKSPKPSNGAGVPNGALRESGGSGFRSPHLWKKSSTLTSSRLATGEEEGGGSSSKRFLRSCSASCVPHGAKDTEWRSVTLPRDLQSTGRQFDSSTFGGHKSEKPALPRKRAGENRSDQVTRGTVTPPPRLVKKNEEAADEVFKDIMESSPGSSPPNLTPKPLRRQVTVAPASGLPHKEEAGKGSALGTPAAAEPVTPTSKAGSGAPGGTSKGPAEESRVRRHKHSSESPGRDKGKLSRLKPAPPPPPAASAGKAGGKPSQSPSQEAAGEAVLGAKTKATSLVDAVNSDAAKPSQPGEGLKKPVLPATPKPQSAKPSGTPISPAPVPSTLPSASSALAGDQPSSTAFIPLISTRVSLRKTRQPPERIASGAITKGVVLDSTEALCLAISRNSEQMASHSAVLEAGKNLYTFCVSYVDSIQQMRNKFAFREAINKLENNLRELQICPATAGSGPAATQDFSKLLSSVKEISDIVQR
Sequence of Bcr/Abl fusion protein (P11274 whole entry, further chain, the tested form may be a part): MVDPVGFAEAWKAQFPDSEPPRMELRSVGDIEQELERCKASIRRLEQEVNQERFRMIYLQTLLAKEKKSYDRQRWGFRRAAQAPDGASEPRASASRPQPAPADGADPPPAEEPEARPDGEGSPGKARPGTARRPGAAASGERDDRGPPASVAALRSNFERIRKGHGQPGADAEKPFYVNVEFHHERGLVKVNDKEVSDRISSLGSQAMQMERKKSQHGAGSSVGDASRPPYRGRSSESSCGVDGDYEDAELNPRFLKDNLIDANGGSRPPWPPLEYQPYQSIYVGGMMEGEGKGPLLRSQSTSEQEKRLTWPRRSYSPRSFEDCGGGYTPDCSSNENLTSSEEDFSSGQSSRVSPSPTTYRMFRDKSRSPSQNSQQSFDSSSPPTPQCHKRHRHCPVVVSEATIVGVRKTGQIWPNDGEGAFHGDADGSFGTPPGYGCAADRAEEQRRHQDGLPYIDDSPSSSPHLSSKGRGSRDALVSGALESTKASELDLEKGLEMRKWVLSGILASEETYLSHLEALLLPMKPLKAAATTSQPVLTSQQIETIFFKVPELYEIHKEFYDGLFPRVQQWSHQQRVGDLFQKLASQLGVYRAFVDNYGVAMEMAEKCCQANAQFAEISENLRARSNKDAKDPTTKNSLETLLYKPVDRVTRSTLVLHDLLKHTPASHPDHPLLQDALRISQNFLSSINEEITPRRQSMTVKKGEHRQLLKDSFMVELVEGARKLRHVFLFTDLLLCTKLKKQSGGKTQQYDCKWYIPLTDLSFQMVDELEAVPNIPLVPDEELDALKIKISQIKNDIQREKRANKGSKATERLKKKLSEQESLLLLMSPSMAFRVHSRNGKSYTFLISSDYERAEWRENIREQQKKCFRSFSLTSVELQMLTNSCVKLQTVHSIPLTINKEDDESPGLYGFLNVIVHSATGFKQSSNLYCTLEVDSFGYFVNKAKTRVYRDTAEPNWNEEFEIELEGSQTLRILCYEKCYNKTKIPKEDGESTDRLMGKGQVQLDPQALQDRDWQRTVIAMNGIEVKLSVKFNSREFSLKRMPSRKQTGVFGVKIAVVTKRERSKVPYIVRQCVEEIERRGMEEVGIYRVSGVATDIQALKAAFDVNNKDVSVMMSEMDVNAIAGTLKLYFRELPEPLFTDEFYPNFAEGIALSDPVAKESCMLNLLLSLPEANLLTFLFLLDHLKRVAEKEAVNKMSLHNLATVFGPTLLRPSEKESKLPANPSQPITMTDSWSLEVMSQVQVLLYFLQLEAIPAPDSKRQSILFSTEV

IC50 [2] [nM]	IC50 [3] [nM]	IC50 [6] [nM]	Compound	Activity [1] [%]	inhibition at 30 µM [4] [%]	Activity [5] [%]	inhibition at 10 µM [7] [%]	inhibition at 2 µM [8] [%]
1.26	436	8.61	CC(C)(C)OC[C@H](NC(=O)c1cccc(-c2ccc(NC(=O)C(C)(C)C)nc2)c1)C(=O)Nc1ccc(Cl)c(C(F)(F)F)c1	72	-5.67	73		
3.12	303	4.44	CC(C)(C)OC[C@H](NC(=O)c1ccc(-c2ccnc(NC(=O)C(C)(C)C)c2)cc1)C(=O)Nc1ccc(Cl)c(C(F)(F)F)c1	90	-3.86	63		
10.7	183	11.4	CC(C)(C)OC[C@H](NC(=O)c1ccc(-c2ccnc(C(=O)NC3CC3)c2)cc1)C(=O)Nc1ccc(Cl)c(C(F)(F)F)c1	84		62	22.5	0
8.47	207	34	CC(C)(C)[C@H](NC(=O)c1cccc(-c2cncc(C(=O)NC3CC3)c2)c1)C(=O)Nc1ccc(Cl)c(C(F)(F)F)c1	90		100	65.6	7.2
4.86	504	7.29	CC(C)(C)C(=O)Nc1ccc(-c2cccc(C(=O)N[C@@H](CO)C(=O)Nc3ccc(Cl)c(C(F)(F)F)c3)c2)cn1	100		77	96.8	0.99
0.36	99	0.24	Nc1cc(-c2ccc(C(=O)N[C@@H](CO)C(=O)Nc3ccc(Cl)c(C(F)(F)F)c3)cc2)ccn1	83	-3.39	100		
5.36	481	16.8	CC(C)(C)C(=O)Nc1cc(-c2ccc(C(=O)N[C@H](C(=O)Nc3ccc(Cl)c(C(F)(F)F)c3)C(C)(C)C)cc2)ccn1	87	8.24	94		
10.2	185	4.5	CCN(CC)C(=O)c1cncc(-c2ccc(C(=O)N[C@H](C(=O)Nc3ccc(Cl)c(C(F)(F)F)c3)C(C)(C)C)cc2)c1	97	42.8	56		
0.13	87	0.33	CS(=O)(=O)Nc1cc(-c2ccc(C(=O)N[C@@H](CO)C(=O)Nc3ccc(Cl)c(C(F)(F)F)c3)cc2)ccn1	78	5.71	87		
10.1	165	7.26	CC(=O)Nc1ccc(-c2cccc(C(=O)N[C@H](C(=O)Nc3ccc(Cl)c(C(F)(F)F)c3)C(C)(C)C)c2)cn1	86		100	100	7.81
2.66	148	6.69	CCN(CC)C(=O)c1cncc(-c2cccc(C(=O)N[C@H](C(=O)Nc3ccc(Cl)c(C(F)(F)F)c3)C(C)(C)C)c2)c1	100	50.8	55		
2.64	136	0.8	CC(=O)Nc1cc(-c2ccc(C(=O)N[C@@H](CO)C(=O)Nc3ccc(Cl)c(C(F)(F)F)c3)cc2)ccn1	91	58.8	72		

Further lines, the compound ahead of its results:

Compound	IC50 [2] [nM]	IC50 [3] [nM]	IC50 [6] [nM]	Activity [1] [%]	inhibition at 30 µM [4] [%]	Activity [5] [%]	inhibition at 10 µM [7] [%]	inhibition at 2 µM [8] [%]
CCN(CC)C(=O)c1cncc(-c2ccc(C(=O)N[C@@H](CO)C(=O)Nc3ccc(Cl)c(C(F)(F)F)c3)cc2)c1	12.2	261	0.27	74	-1.59	100		
CC(=O)Nc1ccc(-c2cccc(C(=O)N[C@@H](COC(C)(C)C)C(=O)Nc3ccc(Cl)c(C(F)(F)F)c3)c2)cn1	19.4	723	56	98	77.1	64		
CC(C)(C)OC[C@H](NC(=O)c1ccc(-c2cncc(C(=O)NC3CC3)c2)cc1)C(=O)Nc1ccc(Cl)c(C(F)(F)F)c1	2.5	128	15.5	84	69.7	79		
O=C(NC1CC1)c1cncc(-c2cccc(C(=O)N[C@@H](CO)C(=O)Nc3ccc(Cl)c(C(F)(F)F)c3)c2)c1	2.79	348	1.35	99	66.1	72		
O=C(NC1CC1)c1cncc(-c2ccc(C(=O)N[C@@H](CO)C(=O)Nc3ccc(Cl)c(C(F)(F)F)c3)cc2)c1	1.68	60	1.11	89	82.5	58		
CS(=O)(=O)Nc1ccc(-c2cccc(C(=O)N[C@@H](CO)C(=O)Nc3ccc(Cl)c(C(F)(F)F)c3)c2)cn1	1.33	217	0.93	94	62.8	83		
Cc1ccc(C(=O)Nc2ccc(CN3CCN(C)CC3)c(C(F)(F)F)c2)cc1C#Cc1cnc2cccnn12 [PONATINIB]	0.049			55		3		
CCN(CC)C(=O)c1cncc(-c2cccc(C(=O)N[C@@H](CO)C(=O)Nc3ccc(Cl)c(C(F)(F)F)c3)c2)c1	4.92	295	3.57	84	53.2	75		
CC(C)(C)OC[C@H](NC(=O)c1cccc(-c2ccc(NC(=O)C3CC3)nc2)c1)C(=O)Nc1ccc(Cl)c(C(F)(F)F)c1		204	3.75	92	-4.27	74		
CC(C)(C)OC[C@H](NC(=O)c1cccc(-c2cncc(C(=O)NC3CC3)c2)c1)C(=O)Nc1ccc(Cl)c(C(F)(F)F)c1	8.86	608	9.3	95		69	94.1	1.93
CCN(CC)C(=O)c1cncc(-c2cccc(C(=O)N[C@@H](COC(C)(C)C)C(=O)Nc3ccc(Cl)c(C(F)(F)F)c3)c2)c1	8.11	132	33	100	58.4	84		
CCN(CC)C(=O)c1cncc(-c2ccc(C(=O)N[C@@H](COC(C)(C)C)C(=O)Nc3ccc(Cl)c(C(F)(F)F)c3)cc2)c1	6.26	144	5.46	73	35	100		
CC(C)(C)OC[C@H](NC(=O)c1cccc(-c2ccc(N)nc2)c1)C(=O)Nc1ccc(Cl)c(C(F)(F)F)c1	1.27	105	0.27	96	-5	100		
